Results on 19 compounds are retold here after patent US20240317777A1, “NOVEL MACROCYCLIC AMINOPYRAZOLE COMPOUNDS AS CDK2 INHIBITORS” (Accutar Biotechnology Inc., priority 2023, published 2024).

Where two headings read alike, the source gives them in different places.

In experiment [1] the test system is Phospho-Rb (Ser807/811) in OVCAR3 cells. Put plainly: Phospho-Rb expression inhibition in OVCAR3 cells quantified by In Cell Western. The experiment is classed as cell-based. Conditions: read-out: OVCAR-3 pRb IC50. How it is done: Phospho-Rb Expression Inhibition in OVCAR3 Cells Quantified by in Cell Western
OVCAR3 cells were obtained from American Type Culture Collection (ATCC, HTB-161). OVCAR3 cells were plated in 96-well plates (VWR #10062-900, or Corning #3904) in 90 uL culture medium at a density of 20,000 cells/well in the RPM11640 growth medium containing 10% FBS and 1% Penicillin Streptomycin, and then incubated at 37° C. overnight. The following day, the test compound was administered to the cells by using 1000× compound stock solution prepared in DMSO at various concentrations. 1000× compound stock solution was first diluted in culturing medium to 10x, then 10 uL compound medium was added to each well in the cell plates. After administration of the compound, the cells were then incubated at 37° C. for 24 hours. Upon completion, the cells were washed with PBS briefly. 150 uL/well of 4% formaldehyde was added and the plates were incubated at room temperature for 20 mins. The cells were washed with PBS briefly, and permeabilized with 150 uL/well of ice cold 100% methanol for 10 mins. The cells were washed with PBS briefly and blocked with 100 uL/well LI-COR blocking buffer for 1 hr at room temperature with gentle shaking. The cells were incubated overnight at 4° C. with 50 uL primary antibody rabbit anti-Phospho-Rb (Ser807/811) (1:500, Cell Signaling, #8516) and anti-Rb (1:200, Santa Cruz, sc-73598) diluted in Intercept Blocking Buffer (LI-COR, #927-60001) containing 0.1% Tween 20. The next day, the cells were washed with 200 uL PBS containing 0.1% Tween 20, 5×5 mins at room temperature with gentle shaking, and incubated with 50 uL secondary antibody, IRDye® 800CW Goat anti-Rabbit IgG (1:1000, LI-COR, #926-32211) and IRDye® 680RD Goat anti-Mouse IgG (1:1000, LI-COR, #926-68070), in LI-COR blocking buffer with 0.2% Tween 20 for 1 hr at room temperature with gentle shaking. The cells were washed with 200 uL PBS containing 0.1% Tween 20, 5×5 mins at room temperature with gentle shaking. The cells were washed with PBS for 5 mins. 100 uL fresh PBS was added to each well and the plates were imaged on a LI-COR Odyssey CLX plate reader.

For experiment [2], the system named is CCNE1-amplified OVCAR3 cells. Put plainly: Cell growth inhibition of CCNE1-amplified OVCAR3 cells (CellTiter-Glo). The experiment is classed as cell-based. Conditions: 6 days. As for the experimental part:
Cell Growth Inhibition of CCNE1-Amplified OVCAR3 Cells
OVCAR3 cells were seeded in 96-well plates at 2000 cells/well in 90 μl of RPM11640 growth medium containing 10% FBS and 1% Penicillin Streptomycin, and then incubated at 37° C. overnight. The following day, the test compound was administered to the cells by using 1000× compound stock solution prepared in DMSO at various concentrations. 1000× compound stock solution was first diluted in culturing medium to 10x, then 10 uL compound medium was added to each well in the cell plates. After administration of the compound, the cells were then incubated at 37° C. for 6 days. Upon completion, the plates were equilibrated at room temperature for approximately 10 minutes. 100 ul of CellTiter-Glo® Reagent (Promega) was added to each well. The plates were then incubated at room temperature for 10 minutes and luminescence was recorded by EnSpire plate reader (PerkinElmer).

The mark [3] stands for this setting: Homo sapiens, OVCAR-3, 24 hours.

As to `O=C1NCCCOc2cc(ccn2)Nc2cc([nH]n2)[C@H]2CC[C@H](C2)O1` [Compound 2, (1^1S,1^3R,Z)-2^1H-5,11-dioxa-3,9-diaza-4(4,2)-pyridina-2(3,5)-pyrazola-1(1,3)-cyclopentanacycloundecaphan-10-one], the IC50 in experiment [1] (setting [3]) was above 250 nM; in experiment [2] (Homo sapiens, OVCAR-3, 144 h), above 250 nM.
Take `C[C@@H]1CCC(C)(C)NC(=O)O[C@@H]2CC[C@@H](C2)c2cc([nH]n2)Nc2ccnc(c2)O1` [Compound 112, (1^1S,1^3R,6R,Z)-6,9,9-trimethyl-2^1H-5,12-dioxa-3,10-diaza-4(4,2)-pyridina-2(3,5)-pyrazola-1(1,3)-cyclopentanacyclododecaphan-11-one]: the IC50 in experiment [1] (setting [3]) was 50 to 250 nM; in experiment [2] (Homo sapiens, OVCAR-3, 144 h) it was above 250 nM.
Turning to `C[C@@H]1CCC(C)(C)NC(=O)O[C@@H]2CC[C@@H](C2)c2cc([nH]n2)Nc2cncc(c2)O1` [Compound 123, (1^1S,1^3R,6R,Z)-6,9,9-trimethyl-2^1H-5,12-dioxa-3,10-diaza-4(3,5)-pyridina-2(3,5)-pyrazola-1(1,3)-cyclopentanacyclododecaphan-11-one], the IC50 is above 250 nM in experiment [1] (setting [3]) and above 250 nM in experiment [2] (Homo sapiens, OVCAR-3, 144 h).
For `O=C1N[C@H](C(F)(F)F)CCCOc2cc(ccn2)Nc2cc(n[nH]2)[C@H]2CC[C@H](C2)O1` [Compound 127, (1^1S,1^3R,9S,Z)-9-(trifluoromethyl)-2^1H-5,12-dioxa-3,10-diaza-4(4,2)-pyridina-2(3,5)-pyrazola-1(1,3)-cyclopentanacyclododecaphan-11-one], the IC50 is above 250 nM in experiment [1] (setting [3]) and above 250 nM in experiment [2] (Homo sapiens, OVCAR-3, 144 h).
As to `O=C1NC2CCN(CC2)c2cc(ccn2)Nc2cc(n[nH]2)[C@H]2CC[C@H](C2)O1` [Compound 136, (5^1S,5^3R,Z)-4^1H-6-oxa-3,8-diaza-2(2,4)-pyridina-1(1,4)-piperidina-4(5,3)-pyrazola-5(1,3)-cyclopentanacyclooctaphan-7-one], the IC50 in experiment [1] (setting [3]) was above 250 nM; in experiment [2] (Homo sapiens, OVCAR-3, 144 h), above 250 nM.
Regarding `C[C@H]1Oc2cc(ccn2)Nc2cc(n[nH]2)[C@H]2CC[C@H](C2)OC(=O)N[C@H]2C[C@@H]1C2` [Compound 143, (1^1S,1^3R,7^1S,7^3S,6R,Z)-6-methyl-2^1H-5,10-dioxa-3,8-diaza-4(4,2)-pyridina-2(3,5)-pyrazola-1(1,3)-cyclopentana-7(1,3)-cyclobutanacyclodecaphan-9-one], the half-maximal inhibitory concentration (IC50) in experiment [1] (setting [3]) is 50 to 250 nM; in experiment [2] (Homo sapiens, OVCAR-3, 144 h), 50 to 250 nM.
For `CC1CCCNC(=O)OC2CCC(C2)c2cc([nH]n2)Nc2cc(c[n+]([O-])c2)O1` [Compound 153, (1^1S,1^3R,6R,Z)-6-methyl-11-oxo-2^1H-5,12-dioxa-3,10-diaza-4(3,5)-pyridin-1-iuma-2(3,5)-pyrazola-1(1,3)-cyclopentanacyclododecaphane 41-oxide], the IC50 in experiment [1] (24 hours) and in experiment [2] was above 250 nM throughout.
For `CC1CCCNC(=O)OC2CCC(C2)c2cc([nH]n2)Nc2cc(c[n+]([O-])c2)O1` [Compound 154, (1^1S,1^3R,6S,Z)-6-methyl-11-oxo-2^1H-5,12-dioxa-3,10-diaza-4(3,5)-pyridin-1-iuma-2(3,5)-pyrazola-1(1,3)-cyclopentanacyclododecaphane 41-oxide], the IC50 is 50 to 250 nM in experiment [1] (24 hours) and above 250 nM in experiment [2].
With `C[C@@H]1CCCNC(=O)O[C@@H]2CC[C@@H](C2)c2cc([nH]n2)Nc2cccc(c2)O1` [Compound 156, (1^1S,1^3R,6R,Z)-6-methyl-2^1H-5,12-dioxa-3,10-diaza-2(3,5)-pyrazola-4(1,3)-benzena-1(1,3)-cyclopentanacyclododecaphan-11-one], the IC50 in experiment [1] (setting [3]) was above 250 nM; in experiment [2] (Homo sapiens, OVCAR-3, 144 h), above 250 nM.
Take `O=C1NCCCO[C@H](C(F)(F)F)c2cc(ccn2)Nc2cc(n[nH]2)[C@H]2CC[C@H](C2)O1` [Compound 160, (1^1S,1^3R,5S,Z)-5-(trifluoromethyl)-2^1H-6,12-dioxa-3,10-diaza-4(4,2)-pyridina-2(3,5)-pyrazola-1(1,3)-cyclopentanacyclododecaphan-11-one]: the IC50 in experiment [1] (setting [3]) fell in the range of 50 to 250 nM; in experiment [2] (Homo sapiens, OVCAR-3, 144 h), 50 to 250 nM.
As to `[2H]C1([2H])CC[C@H](C)NC(=O)O[C@@H]2CC[C@@H](C2)c2cc([nH]n2)Nc2cc(ncc2F)O1` [Compound 175, (1^1S,1^3R,9S,Z)-4^5-fluoro-9-methyl-2^1H-5,12-dioxa-3,10-diaza-4(4,2)-pyridina-2(3,5)-pyrazola-1(1,3)-cyclopentanacyclododecaphan-11-one-6,6-d2], the IC50 in experiment [1] (setting [3]) was above 250 nM; in experiment [2] (Homo sapiens, OVCAR-3, 144 h), above 250 nM.
`C[C@H]1CCCOc2cc(cc(F)n2)Nc2cc(n[nH]2)[C@H]2CC[C@H](C2)OC(=O)N1` [Compound 178, (1^1S,1^3R,9S,Z)-4^6-fluoro-9-methyl-2^1H-5,12-dioxa-3,10-diaza-4(4,2)-pyridina-2(3,5)-pyrazola-1(1,3)-cyclopentanacyclododecaphan-11-one]: the IC50 was 10 to 50 nM in experiment [1] (setting [3]) and 50 to 250 nM in experiment [2] (Homo sapiens, OVCAR-3, 144 h).
In the case of `C[C@H]1CCCOc2ncc(F)c(c2F)Nc2cc(n[nH]2)[C@H]2CC[C@H](C2)OC(=O)N1` [Compound 180, (1^1S,1^3R,9S,Z)-4^3,4^5-difluoro-9-methyl-2^1H-5,12-dioxa-3,10-diaza-4(4,2)-pyridina-2(3,5)-pyrazola-1(1,3)-cyclopentanacyclododecaphan-11-one], the IC50 in experiment [1] (setting [3]) was above 250 nM; in experiment [2] (Homo sapiens, OVCAR-3, 144 h) it was above 250 nM.
With `C[C@@H]1NC(=O)O[C@H]2C[C@H](C[C@H]2F)c2cc([nH]n2)Nc2ccnc(c2)OCCC1(F)F` [Compound 226, (1^1R,1^3S,1^4R,9S,Z)-1^4,8,8-trifluoro-9-methyl-2^1H-5,12-dioxa-3,10-diaza-4(4,2)-pyridina-2(3,5)-pyrazola-1(1,3)-cyclopentanacyclododecaphan-11-one], the IC50 in experiment [1] (setting [3]) was 2 to 10 nM.
`C[C@@H]1NC(=O)O[C@@H]2C[C@@H](C[C@@H]2F)c2cc([nH]n2)Nc2ccnc(c2)OCCC1(F)F` [Compound 227, (1^1S,1^3R,1^4S,9S,Z)-1^4,8,8-trifluoro-9-methyl-2^1H-5,12-dioxa-3,10-diaza-4(4,2)-pyridina-2(3,5)-pyrazola-1(1,3)-cyclopentanacyclododecaphan-11-one]: the IC50 in experiment [1] (setting [3]) was in the range of 10 to 50 nM.
On the same count and under the same terms, to `C[C@@H]1NC(=O)O[C@H]2CC(C[C@H]2F)c2n[nH]c(c2F)Nc2ccnc(c2)OCCC1(F)F` [Compound 239, (1^1R,1^3S,1^4R,9S,E)-1^4,2^4,8,8-tetrafluoro-9-methyl-2^1H-5,12-dioxa-3,10-diaza-4(4,2)-pyridina-2(3,5)-pyrazola-1(1,3)-cyclopentanacyclododecaphan-11-one] belongs 10 to 50 nM; to `C[C@@H]1NC(=O)O[C@@H]2CC(C[C@@H]2F)c2n[nH]c(c2F)Nc2ccnc(c2)OCCC1(F)F` [Compound 240, (1^1S,1^3R,1^4S,9S,E)-1^4,2^4,8,8-tetrafluoro-9-methyl-2^1H-5,12-dioxa-3,10-diaza-4(4,2)-pyridina-2(3,5)-pyrazola-1(1,3)-cyclopentanacyclododecaphan-11-one], 10 to 50 nM; to `C[C@H]1CCCOc2cncc(n2)Nc2cc(n[nH]2)C2C[C@@H](F)[C@H](C2)OC(=O)N1` [Compound 242, (1^1R,1^3S,1^4R,9S,Z)-1^4-fluoro-9-methyl-2^1H-5,12-dioxa-3,10-diaza-4(2,6)-pyrazina-2(3,5)-pyrazola-1(1,3)-cyclopentanacyclododecaphan-11-one], at most 2 nM.
As to `C[C@H]1CCCOc2cncc(n2)Nc2[nH]nc(c2F)C2C[C@@H](F)[C@H](C2)OC(=O)N1` [Compound 243, (1^1R,1^3S,1^4R,9S,E)-1^4,2^4-difluoro-9-methyl-2^1H-5,12-dioxa-3,10-diaza-4(2,6)-pyrazina-2(3,5)-pyrazola-1(1,3)-cyclopentanacyclododecaphan-11-one], the IC50 in experiment [1] (setting [3]) was at most 2 nM.

The term IC50 denotes the concentration at which inhibition is half-maximal.
